# Molecular target: T1, GLP-1R (Homo sapiens, UniProt P43220)
# T1 construct: host or cells: CHO cells
# Assay: GLP-1R activation cAMP assay (Assay 1 or Assay 2)
# Format: cell-based
# Conditions: cAMP increase in CHO cells stably expressing GLP-1R; compounds run on one of the two cAMP assays
# Outline: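 EC50 values come from a sigmoidal fit of HTRF-detected cAMP rise versus log agonist concentration. GLP-1R-expressing CHO cells, equilibrated 1 h at 37 °C in HBSS with HEPES and BSA, received a 10-point compound dose series for 30 min before detection.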
# T1 sequence (P43220 24-463): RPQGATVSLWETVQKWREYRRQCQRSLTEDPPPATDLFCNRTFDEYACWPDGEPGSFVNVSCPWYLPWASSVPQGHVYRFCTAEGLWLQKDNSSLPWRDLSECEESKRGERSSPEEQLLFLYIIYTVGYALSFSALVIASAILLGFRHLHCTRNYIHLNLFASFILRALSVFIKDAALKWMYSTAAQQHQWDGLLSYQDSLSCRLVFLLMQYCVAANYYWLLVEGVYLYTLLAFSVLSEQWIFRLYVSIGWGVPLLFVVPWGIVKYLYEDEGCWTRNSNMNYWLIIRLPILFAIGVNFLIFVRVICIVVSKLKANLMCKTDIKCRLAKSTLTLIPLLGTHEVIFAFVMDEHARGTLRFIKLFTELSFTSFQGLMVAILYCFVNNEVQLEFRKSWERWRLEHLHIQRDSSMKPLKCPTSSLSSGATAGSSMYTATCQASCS
row,EC50,SMILES
1,99 pM,"O=C(O)c1ccc2nc(Cc3cc(F)c(-c4cccc(OCc5ccc(C#Cc6cc[nH]c(=O)c6)cc5F)n4)cc3F)n(C[C@@H]3CCO3)c2c1 [Example 356, (S)-2-(2,5-difluoro-4-(6-((2-fluoro-4-((2-oxo-1,2-dihydropyridin-4-yl)ethynyl)benzyl)oxy)pyridin-2-yl)benzyl)-1-(oxetan-2-ylmethyl)-1H-benzo[d]imidazole-6-carboxylic acid]"
2,508 pM,"Cn1ccc(C#Cc2ccc(COc3cccc(-c4cc(F)c(Cc5nc6ccc(C(=O)O)cc6n5C[C@@H]5CCO5)cc4F)n3)c(F)c2)cc1=O [Example 357, (S)-2-(2,5-difluoro-4-(6-((2-fluoro-4-((1-methyl-2-oxo-1,2-dihydropyridin-4-yl)ethynyl)benzyl)oxy)pyridin-2-yl)benzyl)-1-(oxetan-2-ylmethyl)-1H-benzo[d]imidazole-6-carboxylic acid]"
3,243 pM,"Cn1cc(C#Cc2ccc(COc3cccc(-c4cc(F)c(Cc5nc6ccc(C(=O)O)cc6n5C[C@@H]5CCO5)cc4F)n3)nc2Cl)cn1 [Example 358, (S)-2-(4-(6-((6-chloro-5-((1-methyl-1H-pyrazol-4-yl)ethynyl)pyridin-2-yl)methoxy)pyridin-2-yl)-2,5-difluorobenzyl)-1-(oxetan-2-ylmethyl)-1H-benzo[d]imidazole-6-carboxylic acid]"
4,51 pM,"Cn1ncc(C#Cc2ccc(COc3cccc(-c4cc(F)c(Cc5nc6ccc(C(=O)O)cc6n5C[C@@H]5CCO5)cc4F)n3)c(F)c2)c1C(N)=O [Example 359, (S)-2-(4-(6-((4-((5-carbamoyl-1-methyl-1H-pyrazol-4-yl)ethynyl)-2-fluorobenzyl)oxy)pyridin-2-yl)-2,5-difluorobenzyl)-1-(oxetan-2-ylmethyl)-1H-benzo[d]imidazole-6-carboxylic acid]"
5,174 pM,"COc1nc(C#Cc2cnn(C)c2)ccc1COc1cccc(-c2cc(F)c(Cc3nc4ccc(C(=O)O)cc4n3C[C@@H]3CCO3)cc2F)n1 [Example 360, (S)-2-(2,5-difluoro-4-(6-((2-methoxy-6-((1-methyl-1H-pyrazol-4-yl)ethynyl)pyridin-3-yl)methoxy)pyridin-2-yl)benzyl)-1-(oxetan-2-ylmethyl)-1H-benzo[d]imidazole-6-carboxylic acid]"
6,620 pM,"Cn1ncc(C#Cc2ccc(COc3cccc(-c4cc(F)c(Cc5nc6ccc(C(=O)O)cc6n5C[C@@H]5CCO5)cc4F)n3)c(F)c2)c1Cl [Example 361, (S)-2-(4-(6-((4-((5-chloro-1-methyl-1H-pyrazol-4-yl)ethynyl)-2-fluorobenzyl)oxy)pyridin-2-yl)-2,5-difluorobenzyl)-1-(oxetan-2-ylmethyl)-1H-benzo[d]imidazole-6-carboxylic acid]"
7,330 pM,"Cn1cc(C#Cc2ccc(COc3cccc(-c4cc(F)c(Cc5nc6ccc(C(=O)O)cc6n5C[C@@H]5CCO5)cc4F)n3)c(F)n2)cn1 [Example 362, (S)-2-(2,5-difluoro-4-(6-((2-fluoro-6-((1-methyl-1H-pyrazol-4-yl)ethynyl)pyridin-3-yl)methoxy)pyridin-2-yl)benzyl)-1-(oxetan-2-ylmethyl)-1H-benzo[d]imidazole-6-carboxylic acid]"
8,295 pM,"Cn1cc(C#Cc2ccc(COc3cccc(-c4cc(F)c(Cc5nc6ccc(C(=O)O)cc6n5C[C@@H]5CCO5)cc4F)n3)c(Cl)n2)cn1 [Example 363, (S)-2-(4-(6-((2-chloro-6-((1-methyl-1H-pyrazol-4-yl)ethynyl)pyridin-3-yl)methoxy)pyridin-2-yl)-2,5-difluorobenzyl)-1-(oxetan-2-ylmethyl)-1H-benzo[d]imidazole-6-carboxylic acid]"
9,929 pM,"Cc1c(C#Cc2ccc(COc3cccc(-c4cc(F)c(Cc5nc6ccc(C(=O)O)cc6n5C[C@@H]5CCO5)cc4F)n3)c(F)c2)cnn1C [Example 364, (S)-2-(4-(6-((4-((1,5-dimethyl-1H-pyrazol-4-yl)ethynyl)-2-fluorobenzyl)oxy)pyridin-2-yl)-2,5-difluorobenzyl)-1-(oxetan-2-ylmethyl)-1H-benzo[d]imidazole-6-carboxylic acid]"
10,164 pM,"CNC(=O)c1cc(Cl)c(COc2cccc(-c3cc(F)c(Cc4nc5c(F)cc(C(=O)O)cc5n4[C@@H]4COCC4(C)C)cc3F)n2)cn1 [Example 365, (S)-2-(4-(6-((4-chloro-6-(methylcarbamoyl)pyridin-3-yl)methoxy)pyridin-2-yl)-2,5-difluorobenzyl)-1-(4,4-dimethyltetrahydrofuran-3-yl)-4-fluoro-1H-benzo[d]imidazole-6-carboxylic acid]"
11,560 pM,"Cn1ccc(CNC(=O)c2cc(Cl)c(COc3cccc(-c4cc(F)c(Cc5nc6ccc(C(=O)O)cc6n5C[C@@H]5CCO5)cc4F)n3)cn2)n1 [Example 366, (S)-2-(4-(6-((4-chloro-6-(((1-methyl-1H-pyrazol-3-yl)methyl)carbamoyl)pyridin-3-yl)methoxy)pyridin-2-yl)-2,5-difluorobenzyl)-1-(oxetan-2-ylmethyl)-1H-benzo[d]imidazole-6-carboxylic acid]"
12,235 pM,"COc1nnc(COc2nc(-c3cc(F)c(Cc4nc5c(Cl)cc(C(=O)O)cc5n4[C@@H]4COCC4(C)C)cc3F)ccc2F)s1 [Example 367, (S)-4-chloro-2-(2,5-difluoro-4-(5-fluoro-6-((5-methoxy-1,3,4-thiadiazol-2-yl)methoxy)pyridin-2-yl)benzyl)-1-(4,4-dimethyltetrahydrofuran-3-yl)-1H-benzo[d]imidazole-6-carboxylic acid]"
13,712 pM,"COc1nnc(COc2nc(-c3cc(F)c(Cc4nc5ccc(C(=O)O)cc5n4CC4(CF)CC4)c(F)c3F)ccc2F)s1 [Example 368, 1-((1-(fluoromethyl)cyclopropyl)methyl)-2-(2,3,6-trifluoro-4-(5-fluoro-6-((5-methoxy-1,3,4-thiadiazol-2-yl)methoxy)pyridin-2-yl)benzyl)-1H-benzo[d]imidazole-6-carboxylic acid]"
14,683 pM,"Cc1cc(Cc2nc3ccc(C(=O)O)cc3n2C[C@@H]2CCO2)c(Cl)cc1-c1ccc(F)c(OCc2ncc(C(F)(F)F)s2)n1 [Example 369, (S)-2-(2-chloro-4-(5-fluoro-6-((5-(trifluoromethyl)thiazol-2-yl)methoxy)pyridin-2-yl)-5-methylbenzyl)-1-(oxetan-2-ylmethyl)-1H-benzo[d]imidazole-6-carboxylic acid]"
15,280 pM,"O=C(O)c1ccc2nc(Cc3cc(F)c(-c4ccc(F)c(OCc5ncc(C(F)(F)F)s5)n4)cc3F)n(C[C@@H]3CCO3)c2c1 [Example 370, (S)-2-(2,5-difluoro-4-(5-fluoro-6-((5-(trifluoromethyl)thiazol-2-yl)methoxy)pyridin-2-yl)benzyl)-1-(oxetan-2-ylmethyl)-1H-benzo[d]imidazole-6-carboxylic acid]"
16,1770 pM,"Cc1cc(Cc2nc3ccc(C(=O)O)cc3n2[C@@H]2COCC2(C)C)c(Cl)cc1-c1ccc(F)c(OCc2ncc(C(F)(F)F)s2)n1 [Example 371, (S)-2-(2-chloro-4-(5-fluoro-6-((5-(trifluoromethyl)thiazol-2-yl)methoxy)pyridin-2-yl)-5-methylbenzyl)-1-(4,4-dimethyltetrahydrofuran-3-yl)-1H-benzo[d]imidazole-6-carboxylic acid]"
17,24 pM,"N#Cc1cnc(COc2cccc(-c3cc(F)c(Cc4nc5c(F)cc(C(=O)O)cc5n4C[C@@H]4CCO4)cc3F)n2)s1 [Example 372, 2-[[4-[6-[(5-cyanothiazol-2-yl)methoxy]-2-pyridyl]-2,5-difluoro-phenyl]methyl]-7-fluoro-3-[[(2S)-oxetan-2-yl]methyl]benzimidazole-5-carboxylic acid]"
18,79 pM,"CNC(=O)c1csc(COc2cccc(-c3cc(F)c(Cc4nc5ccc(C(=O)O)cc5n4C[C@@H]4CCO4)cc3F)n2)n1 [Example 373, (S)-2-(2,5-difluoro-4-(6-((4-(methylcarbamoyl)thiazol-2-yl)methoxy)pyridin-2-yl)benzyl)-1-(oxetan-2-ylmethyl)-1H-benzo[d]imidazole-6-carboxylic acid]"
19,478 pM,"NC(=O)c1cccc(COc2cccc(-c3cc(F)c(Cc4nc5ccc(C(=O)O)cc5n4C[C@@H]4CCO4)cc3F)n2)n1 [Example 374, (S)-2-(4-(6-((6-carbamoylpyridin-2-yl)methoxy)pyridin-2-yl)-2,5-difluorobenzyl)-1-(oxetan-2-ylmethyl)-1H-benzo[d]imidazole-6-carboxylic acid]"
20,372 pM,"N#CCCNC(=O)c1ccc(COc2cccc(-c3cc(F)c(Cc4nc5ccc(C(=O)O)cc5n4C[C@@H]4CCO4)cc3F)n2)cn1 [Example 375, (S)-2-(4-(6-((6-((2-cyanoethyl)carbamoyl)pyridin-3-yl)methoxy)pyridin-2-yl)-2,5-difluorobenzyl)-1-(oxetan-2-ylmethyl)-1H-benzo[d]imidazole-6-carboxylic acid]"
21,481 pM,"O=C(O)c1cc(F)c2nc(Cc3c(F)cc(-c4ccnc(OCc5nc(C(F)(F)F)cs5)n4)c(F)c3F)n(C[C@@H]3CCO3)c2c1 [Example 377, (S)-4-fluoro-1-(oxetan-2-ylmethyl)-2-(2,3,6-trifluoro-4-(2-((4-(trifluoromethyl)thiazol-2-yl)methoxy)pyrimidin-4-yl)benzyl)-1H-benzo[d]imidazole-6-carboxylic acid]"
22,68 pM,"CC(F)(F)c1cnc(COc2nc(-c3cc(F)c(Cc4nc5c(F)cc(C(=O)O)cc5n4C[C@@H]4CCO4)c(F)c3F)ccc2F)s1 [Example 378, (S)-2-(4-(6-((5-(1,1-difluoroethyl)thiazol-2-yl)methoxy)-5-fluoropyridin-2-yl)-2,3,6-trifluorobenzyl)-4-fluoro-1-(oxetan-2-ylmethyl)-1H-benzo[d]imidazole-6-carboxylic acid]"
23,303 pM,"CC1(C#Cc2cnc(COc3cccc(-c4cc(F)c(Cc5nc6c(F)cc(C(=O)O)cc6n5C[C@@H]5CCO5)cc4F)n3)c(Cl)c2)CC1 [Example 379, (S)-2-(4-(6-((3-chloro-5-((1-methylcyclopropyl)ethynyl)pyridin-2-yl)methoxy)pyridin-2-yl)-2,5-difluorobenzyl)-4-fluoro-1-(oxetan-2-ylmethyl)-1H-benzo[d]imidazole-6-carboxylic acid]"

# Source: patent US20250312352A1, “GLP-1R MODULATING COMPOUNDS” (Gilead Sciences, Inc., priority 2021, published 2025)
